Experimental data from patent publication US8455475B2 (Gruenenthal GmbH, priority 2009, dated 2013).

Key:
[1] = biological target: T1, human B1R (bradykinin receptor 1) (Homo sapiens, UniProt P46663); assay: FLIPR Ca2+ assay (Fluo-4) on CHO K1 cells stably transfected with the human B1R gene (hB1R cells): % inhibition at 10 μM / IC50, agonist Lys-Des-Arg9-bradykinin; assay type: cell-based; conditions: for inhibition at 10 µM: CHO-K1, human B1R
T1 construct: expressed in transfected cells; host or cells: CHO K1 cells
T1 sequence (P46663 1-353): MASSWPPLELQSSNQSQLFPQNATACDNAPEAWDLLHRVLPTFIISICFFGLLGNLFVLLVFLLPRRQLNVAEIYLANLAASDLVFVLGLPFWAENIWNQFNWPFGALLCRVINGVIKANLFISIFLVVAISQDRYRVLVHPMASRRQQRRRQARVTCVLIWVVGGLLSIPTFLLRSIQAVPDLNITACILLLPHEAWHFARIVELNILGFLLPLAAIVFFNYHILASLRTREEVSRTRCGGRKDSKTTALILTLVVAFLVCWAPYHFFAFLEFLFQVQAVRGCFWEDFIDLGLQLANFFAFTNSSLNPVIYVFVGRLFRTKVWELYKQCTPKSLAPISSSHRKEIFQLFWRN
Description: The agonistic or antagonistic action of substances can be quantified on the bradykinin receptor 1 (B1R) of the human and rat species with ectopically expressing cell lines (CHO K1 cells) and with the aid of a Ca^2+-sensitive dyestuff (Fluo-4) in a fluorescent imaging plate reader (FLIPR). The figure in % activation is based on the Ca^2+ signal after addition of Lys-Des-Arg^9-bradykinin (0.5 nM) or Des-Arg^9-bradykinin (100 nM). Antagonists lead to a suppression of the Ca^2+ inflow after addition of the agonist. % inhibition compared with the maximum achievable inhibition is stated.
The agonistic or antagonistic action of substances can be determined on the bradykinin receptor 1 (B1R) of the human and rat species with the following assay. In accordance with this assay, the Ca^2+ inflow through the channel is quantified with the aid of a Ca^2+-sensitive dyestuff (type Fluo-4, Molecular Probes Europe BV, Leiden, Holland) in a fluorescent imaging plate reader (FLIPR, Molecular Devices, Sunnyvale, USA).
Chinese hamster ovary cells (CHO K1 cells) transfected stably with the human B1R gene (hB1R cells) or the B1R gene of the rat (rB1R cells) are used. For functional studies, these cells are plated out on black 96-well plates with a clear base (BD Biosciences, Heidelberg, Germany or Greiner, Frickenhausen, Germany) in a density of 20,000-35,000 cells/well. The cells are left overnight at 37° C. and 5% CO2 in culture medium (hB1R cells: Nutrient Mixture Ham's F12, Gibco Invitrogen GmbH, Karlsruhe, Germany or DMEM, Sigma-Aldrich, Taufkirchen, Germany; rB1R cells: D-MEM/F12, Gibco Invitrogen GmbH, Karlsruhe, Germany) with 10 vol. % FBS (foetal bovine serum, Gibco Invitrogen GmbH, Karlsruhe, Germany or PAN Biotech GmbH, Aidenbach, Germany). On the following day, the cells are loaded for 60 min at 37° C. with 2.13 μM Fluo-4 (Molecular Probes Europe BV, Leiden Holland) in HBSS buffer (Hank's buffered saline solution, Gibco Invitrogen GmbH, Karlsruhe, Germany) with 2.5 mM probenecid (Sigma-Aldrich, Taufkirchen, Germany) and 10 mM HEPES (Sigma-Aldrich, Taufkirchen, Germany). The plates are then washed 2× with HBSS buffer, and HBSS buffer which additionally contains 0.1% BSA (bovine serum albumin; Sigma-Aldrich, Taufkirchen, Germany), 5.6 mM glucose and 0.05% gelatine (Merck KGaA, Darmstadt, Germany) is added. After a further incubation of 20 minutes at room temperature, the plates are inserted into the FLIPR for the Ca^2+ measurement. Alternatively, the plates are washed with buffer A (15 mM HEPES, 80 mM NaCl, 5 mM KCl, 1.2 mM CaCl2, 0.7 mM MgSO4, 2 g/l glucose, 2.5 mM probenecid), buffer A is added and the plates are loaded with 2.5 μM Fluo-4 and 0.025% Pluronic F127 (Sigma-Aldrich, Taufkirchen, Germany). Thereafter, the cells are washed 2× with buffer A and incubated for 30 minutes at room temperature with buffer A, which additionally contains 0.05% BSA and 0.05% gelatine, and thereafter inserted into the FLIPR for the Ca^2+ measurement. The Ca^2+-dependent fluorescence is measured here before and after addition of substances (λex=488 nm, λem=540 nm). Quantification is by measurement of the highest fluorescence intensity (FC, fluorescence counts) over time.
The FLIPR protocol consists of 2 additions of substance. Test substances (10 μM) are first pipetted on to the cells and the Ca^2+ inflow is compared with the control (hB1R: Lys-Des-Arg^9-bradykinin>=50 nM; rB1R: Des-Arg^9-bradykinin 10 μM). This gives the result in % activation based on the Ca^2+ signal after addition of Lys-Des-Arg^9-bradykinin (>=50 nM) or Des-Arg^9-bradykinin (10 μM). After incubation for 10-20 minutes, Lys-Des-Arg^9-bradykinin (hB1R) or Des-Arg^9-bradykinin (rB1R) in the concentration of the EC80 is applied and the inflow of Ca^2+ is likewise determined. Antagonists lead to a suppression of the Ca^2+ inflow. % inhibition compared with the maximum achievable inhibition is calculated.
For determination of the IC50 value, the substances are added in various concentrations. […]

[2] = biological target: T2, rat B1R (bradykinin receptor 1) (Rattus norvegicus, UniProt P97583); assay: FLIPR Ca2+ assay (Fluo-4) on CHO K1 cells stably transfected with the B1R gene of the rat (rB1R cells): % inhibition at 10 μM / IC50, agonist Des-Arg9-bradykinin; assay type: cell-based; conditions: for inhibition at 10 µM: CHO-K1, rat B1R
T2 construct: expressed in transfected cells; host or cells: CHO K1 cells
T2 sequence (P97583 1-337): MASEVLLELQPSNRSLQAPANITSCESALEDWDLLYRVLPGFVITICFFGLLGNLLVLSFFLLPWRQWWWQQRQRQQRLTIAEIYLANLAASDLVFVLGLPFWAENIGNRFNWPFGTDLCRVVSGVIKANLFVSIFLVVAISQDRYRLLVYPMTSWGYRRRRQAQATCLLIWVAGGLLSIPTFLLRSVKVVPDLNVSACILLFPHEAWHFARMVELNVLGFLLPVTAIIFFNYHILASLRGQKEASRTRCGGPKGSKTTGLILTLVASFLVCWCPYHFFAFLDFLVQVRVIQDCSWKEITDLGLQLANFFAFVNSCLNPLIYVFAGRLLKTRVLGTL
Outline: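 Cells were Fluo-4-loaded, then test compound (10 μM, or a concentration series for IC50) was preincubated 10–20 min before agonist challenge at EC80: Lys-Des-Arg9-bradykinin for hB1R, Des-Arg9-bradykinin for rB1R. Peak Ca2+ fluorescence (ex 488/em 540 nm) gave % inhibition versus maximal achievable inhibition.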

## CN(C(=O)c1ccccc1Cl)C1CCc2ccc(C(=O)N3CCC4(CC3)CCC(c3ccc(F)cc3)(N(C)C)CC4)cc21 (centres unmarked) [Ind_CC-110, 2-chloro-N-[6-[9-dimethylamino-9-(4-fluorophenyl)-3-azaspiro[5.5]undecane-3-carbonyl]-2,3-dihydro-1H-inden-1-yl]-N-methyl-benzamide]
[1]
  inhibition at 10 µM: 52%
[2]
  inhibition at 10 µM: 79%

## O=C(N[C@@H]1CCCc2ccc(C(=O)N3CCCC4(CCN(c5ccncc5)C4)C3)cc21)c1ccccc1Cl (stereo partly drawn) [Example H-70, 2-Chloro-N-[(1R)-7-(2-pyridin-4-yl-2,9-diazaspiro[4.5]decane-9-carbonyl]-1,2,3,4-tetrahydro-naphthalen-1-yl]-benzamide]
[1]
  inhibition at 10 µM: 90%
[2]
  inhibition at 10 µM: 103%

## Cc1nc(CN2CCC3(CC2)CCN(C(=O)c2ccc4c(c2)C(NC(=O)c2ccccc2Cl)CC4)CC3)c[nH]1 (centres unmarked) [IND_CC-528, 2-Chloro-N-[6-[9-[(2-methyl-1H-imidazol-4-yl)-methyl]-3,9-diazaspiro[5.5]undecane-3-carbonyl]-2,3-dihydro-1H-inden-1-yl]-benzamide]
[1]
  inhibition at 10 µM: 24%
[2]
  inhibition at 10 µM: 102%

## O=C(NC1CCc2ccc(C(=O)N3CCC4(CCN(Cc5ccc6nccnc6c5)CC4)C3)cc21)c1ccccc1Cl (centres unmarked) [IND_CC-568, 2-Chloro-N-[6-[8-(quinoxalin-6-yl-methyl)-2,8-diazaspiro[4.5]decane-2-carbonyl]-2,3-dihydro-1H-inden-1-yl]-benzamide]
[1]
  inhibition at 10 µM: 20%
[2]
  inhibition at 10 µM: 105%

## Cc1cc2c(cc1C(=O)N1CCC3(CCN(c4ccncc4)CC3)C1)[C@H](NC(=O)c1ccccc1Cl)CC2 [Example H-93, 2-Chloro-N-[(1R)-5-methyl-6-(8-pyridin-4-yl-3,8-diazaspiro[4.5]decane-3-carbonyl)-2,3-dihydro-1H-inden-1-yl]-benzamide]
[1]
  inhibition at 10 µM: 100%
[2]
  inhibition at 10 µM: 103%

## Cc1nc[nH]c1CN1CCC2(CC1)CCN(C(=O)c1ccc3c(c1)C(NC(=O)c1ccccc1Cl)CC3)C2 (centres unmarked) [IND_CC-553, 2-Chloro-N-[6-[8-[(5-methyl-3H-imidazol-4-yl)-methyl]-2,8-diazaspiro[4.5]decane-2-carbonyl]-2,3-dihydro-1H-inden-1-yl]-benzamide]
[1]
  inhibition at 10 µM: -2%
[2]
  inhibition at 10 µM: 90%

## COc1ccc(C(=O)N[C@@H]2CCc3ccc(C(=O)N4CCC5(CCN(c6ccncc6)CC5)C4)cc32)c(Cl)c1 [Example H-63, 2-Chloro-4-methoxy-N-[(1R)-6-(8-pyridin-4-yl-3,8-diazaspiro[4.5]decane-3-carbonyl)-2,3-dihydro-1H-inden-1-yl]-benzamide]
[1]
  inhibition at 10 µM: 100%
[2]
  inhibition at 10 µM: 104%

## O=C(N[C@@H]1CCOc2cc(F)c(C(=O)N3CCC4(CCN(c5ccncc5)CC4)C3)cc21)c1ccccc1Cl [Example H-65, 2-Chloro-N-[(4R)-7-fluoro-6-(8-pyridin-4-yl-3,8-diazaspiro[4.5]decane-3-carbonyl)-3,4-dihydro-2H-chromen-4-yl]-benzamide]
[1]
  inhibition at 10 µM: 100%
[2]
  inhibition at 10 µM: 105%

## O=C(N[C@@H]1CCOc2ccc(C(=O)N3CCC4(CC3)CCN(c3ccncc3)C4)cc21)c1ccccc1Cl [Example H-57, 2-Chloro-N-[(4R)-6-(3-pyridin-4-yl-3,8-diazaspiro[4.5]decane-8-carbonyl)-3,4-dihydro-2H-chromen-4-yl]-benzamide]
[1]
  inhibition at 10 µM: 99%
[2]
  inhibition at 10 µM: 105%

## O=C(N[C@@H]1CCc2ccc(C(=O)N3CCC4(CC3)CCN(c3ccncc3)C4)cc21)c1cncnc1 [Example H-86, N-[(1R)-6-(3-Pyridin-4-yl-3,8-diazaspiro[4.5]decane-8-carbonyl)-2,3-dihydro-1H-inden-1-yl]-pyrimidine-5-carboxylic acid amide]
[1]
  inhibition at 10 µM: 95%
[2]
  inhibition at 10 µM: 79%

## O=C(c1ccc2c(c1)[C@H](N1Cc3cccc(Cl)c3C1=O)CCC2)N1CCC2(CC1)CCN(c1ccncc1)CC2 [Example H-14, 7-chloro-2-[(1R)-7-(9-pyridin-4-yl-3,9-diazaspiro[5.5]undecane-3-carbonyl)-1,2,3,4-tetrahydro-naphthalen-1-yl]-2,3-dihydro-isoindol-1-one]
[1]
  inhibition at 10 µM: 91%
[2]
  inhibition at 10 µM: 101%

## O=C(N[C@@H]1CCc2ccc(C(=O)N3CCC4(CCN(c5ccncc5)CC4)C3)cc21)c1cc(Cl)ccc1Cl [Example H-98, 2,5-Dichloro-N-[(1R)-6-(8-pyridin-4-yl-3,8-diazaspiro[4.5]decane-3-carbonyl)-2,3-dihydro-1H-inden-1-yl]-benzamide]
[1]
  inhibition at 10 µM: 100%
[2]
  inhibition at 10 µM: 108%

## O=C(N[C@@H]1CCc2ccc(C(=O)N3CCC4(CC3)CCN(c3ccncc3)CC4)cc21)c1ccccc1F [Example H-102, 2-Fluoro-N-[(1R)-6-(9-pyridin-4-yl-3,9-diazaspiro[5.5]undecane-3-carbonyl)-2,3-dihydro-1H-inden-1-yl]-benzamide]
[1]
  inhibition at 10 µM: 100%
[2]
  inhibition at 10 µM: 109%

## O=C(N[C@@H]1CCc2ccc(C(=O)N3CCC4(CC3)CCN(c3ccncc3)CC4)cc21)c1cccc(Cl)c1Cl [Example H-95, 2,3-Dichloro-N-[(1R)-6-(9-pyridin-4-yl-3,9-diazaspiro[5.5]undecane-3-carbonyl)-2,3-dihydro-1H-inden-1-yl]-benzamide]
[1]
  inhibition at 10 µM: 100%
[2]
  inhibition at 10 µM: 98%

## O=C(N[C@@H]1CCc2cc(C(=O)N3CCC4(CCN(c5ccncc5)CC4)C3)ccc21)c1ccccc1Cl [Example H-171]
[1]
  inhibition at 10 µM: 100%
[2]
  inhibition at 10 µM: 104%

## CN(C(=O)NCc1ccccc1Cl)C1CCc2ccc(C(=O)N3CCC4(CC3)CCN(c3ccncc3)CC4)cc21 (centres unmarked) [Ind_CC-023]
[1]; human B1R
  % Inhibition (human B1R) at 10 μM: 98%
[2]; rat B1R
  % Inhibition (rat B1R) at 10 μM: 93%
